In publication PMC12087695, “A Phenotyping Tool for Seven Cytochrome P450 Enzymes and Two Transporters: Application to Examine the Effects of Clopidogrel and Gemfibrozil” (Clinical Pharmacology and Therapeutics, 2025):
Where two headings read alike, the source gives them in different places.

Legend:
CYP2B6 [1] = settings: index drug data, healthy volunteers
Method: (§1) This open‐label cross‐over clinical trial included five study phases that each participant underwent in a randomized order (Table 1 ). There was at least 2‐week washout period between different study days.
(§2) On study days, venous blood samples from all participants were drawn from forearm vein cannulas before the administration of the pretreatment drugs and 5 minutes before and 0.5, 1, 1.5, 2, 3, 4, 6, 8, 12, and 23 hours after the administration of the index drugs for determination of index drug and metabolite concentrations. […] Blood glucose levels were monitored with CareSens Dual point‐of‐care blood glucose meter (i‐SENS Inc., Seoul, South Korea) at each venous blood sampling time point up to 12 hours after the administration of index drugs.
(§3) The flow rate was 0.3 mL/min, and the gradient program for the mobile phase B was from 20% to 90% over 7 minutes, wash at 90% 7–9.5 minutes, followed by balancing at 20% before next injection. […] The quality control samples for each analyte at relevant concentrations were quantified with each batch of plasma samples.
(§4) As for biomarkers, AUC0‐3h values in phases I–III and AUC0‐4h values in phases III–V for GCDCA‐3G and GCDCA‐3S and AUC0‐4h values in phases III and V for M430, M444, and solanidine were calculated with trapezoidal rule in Excel (Microsoft, Redmond, WA). […]

CYP2B6 [2] = settings: 75 mg dose; ref US FDA; cited from earlier work
CYP2C19 = CYP2C19 (Homo sapiens, UniProt P33261); settings: index drug data, healthy volunteers
Method: as §1, §2, §3, §4

[3] = Plasma pharmacokinetics of pretreatment drugs clopidogrel, gemfibrozil and their metabolites; format: in vivo; settings: human, after clopidogrel 300 mg single oral dose (phase IV)
Method: as §1
(§5) On study days, venous blood samples from all participants were drawn from forearm vein cannulas before the administration of the pretreatment drugs and 5 minutes before and 0.5, 1, 1.5, 2, 3, 4, 6, 8, 12, and 23 hours after the administration of the index drugs for determination of index drug and metabolite concentrations. Additional venous blood samples for biomarker analyses were drawn before the administration of the pretreatment drugs and 5 minutes before and 3 hours after the administration of the index drugs. Standardized breakfast was served 1 hour, lunch 3 hours, and snacks 7 and 9 hours after the administration of index drugs. Blood glucose levels were monitored with CareSens Dual point‐of‐care blood glucose meter (i‐SENS Inc., Seoul, South Korea) at each venous blood sampling time point up to 12 hours after the administration of index drugs.
The quality control samples for each analyte at relevant concentrations were quantified with each batch of plasma samples.

OATP1B1 = OATP1B1 endogenous biomarker GCDCA-3G in plasma; settings: for OATP1B1 inhibition in the trial: GCDCA-3G biomarker data
Method: (§6) On study days, venous blood samples from all participants were drawn from forearm vein cannulas before the administration of the pretreatment drugs and 5 minutes before and 0.5, 1, 1.5, 2, 3, 4, 6, 8, 12, and 23 hours after the administration of the index drugs for determination of index drug and metabolite concentrations. Additional venous blood samples for biomarker analyses were drawn before the administration of the pretreatment drugs and 5 minutes before and 3 hours after the administration of the index drugs.
(§7) Plasma repaglinide, OATP1B1 biomarker GCDCA‐3G, OATP1B3 biomarker GCDCA‐3S, and CYP2D6 biomarker solanidine were analyzed using Sciex 5500 Qtrap and Sciex 6500 Qtrap LC–MS systems (AB Sciex, Toronto, ON, Canada) as previously described.[20], [21], [22] The limit of quantification for repaglinide was 0.01 ng/mL. The between‐day precisions (CV%) for quality controls (0.1 and 2.0 ng/mL) were below 10% and accuracies were within ±10%. For GCDCA‐3G and GCDCA‐3S, the limit of quantification was 0.5 ng/mL and the between‐day precisions and accuracies were below 5% and ± 10% at relevant concentrations (10 and 200 ng/mL).
(§8) As for biomarkers, AUC0‐3h values in phases I–III and AUC0‐4h values in phases III–V for GCDCA‐3G and GCDCA‐3S and AUC0‐4h values in phases III and V for M430, M444, and solanidine were calculated with trapezoidal rule in Excel (Microsoft, Redmond, WA).
(§9) Individuals with poor metabolism or transport function phenotype were excluded from respective statistical comparisons. Additionally, to keep comparisons balanced, subjects lacking pharmacokinetic variable data in any study phase were excluded from the respective analyses. Prior to statistical analyses with IBM SPSS Statistics Version 29.0 for Windows (IBM Corporation, Armonk, NY), all pharmacokinetic variable values were logarithmically transformed. Pharmacokinetic variables except T max were compared between different study phases by repeated‐measures analysis of variance with study phase as a within‐subjects factor. T max values were compared with Wilcoxon signed‐rank test. Differences with P < 0.05 after the Bonferroni correction were considered statistically significant. The data are presented as geometrical mean values or geometric mean ratios with geometric CV or 90% confidence intervals (CI) if not otherwise indicated.

CYP2C8 [4] = target: T1, CYP2C8 (Homo sapiens, UniProt P10632); assay: CYP2C8 phenotyping with index drug repaglinide; settings: repaglinide index drug data, healthy volunteers
T1 sequence (P10632 1-490): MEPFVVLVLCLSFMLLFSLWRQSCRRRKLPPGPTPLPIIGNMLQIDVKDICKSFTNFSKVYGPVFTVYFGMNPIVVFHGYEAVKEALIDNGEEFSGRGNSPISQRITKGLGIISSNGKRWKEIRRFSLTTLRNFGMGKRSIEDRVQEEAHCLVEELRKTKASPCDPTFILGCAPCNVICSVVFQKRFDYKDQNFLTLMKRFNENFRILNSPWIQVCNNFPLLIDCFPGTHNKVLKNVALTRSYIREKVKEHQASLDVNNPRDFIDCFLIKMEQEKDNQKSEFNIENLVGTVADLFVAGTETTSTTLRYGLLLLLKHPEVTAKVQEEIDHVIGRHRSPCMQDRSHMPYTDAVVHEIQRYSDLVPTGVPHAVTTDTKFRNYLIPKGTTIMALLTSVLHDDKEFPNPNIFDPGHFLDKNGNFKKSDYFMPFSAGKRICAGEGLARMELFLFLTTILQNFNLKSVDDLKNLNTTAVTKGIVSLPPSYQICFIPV
Method: as §1, §2
(§10) The limit of quantification for repaglinide was 0.01 ng/mL. […] For GCDCA‐3G and GCDCA‐3S, the limit of quantification was 0.5 ng/mL and the between‐day precisions and accuracies were below 5% and ± 10% at relevant concentrations (10 and 200 ng/mL).
(§11) As for biomarkers, AUC0‐3h values in phases I–III and AUC0‐4h values in phases III–V for GCDCA‐3G and GCDCA‐3S and AUC0‐4h values in phases III and V for M430, M444, and solanidine were calculated with trapezoidal rule in Excel (Microsoft, Redmond, WA). 0‐hour metabolic ratio and AUC0‐4h ratios were calculated for M430/solanidine and M444/solanidine. […]

OATP1B3 = target: T2, OATP1B3 (Homo sapiens, UniProt Q9NPD5); assay: OATP1B3 endogenous biomarker GCDCA-3S in plasma; settings: for OATP1B3 inhibition in the trial: GCDCA-3S biomarker data
T2 sequence (Q9NPD5 1-702): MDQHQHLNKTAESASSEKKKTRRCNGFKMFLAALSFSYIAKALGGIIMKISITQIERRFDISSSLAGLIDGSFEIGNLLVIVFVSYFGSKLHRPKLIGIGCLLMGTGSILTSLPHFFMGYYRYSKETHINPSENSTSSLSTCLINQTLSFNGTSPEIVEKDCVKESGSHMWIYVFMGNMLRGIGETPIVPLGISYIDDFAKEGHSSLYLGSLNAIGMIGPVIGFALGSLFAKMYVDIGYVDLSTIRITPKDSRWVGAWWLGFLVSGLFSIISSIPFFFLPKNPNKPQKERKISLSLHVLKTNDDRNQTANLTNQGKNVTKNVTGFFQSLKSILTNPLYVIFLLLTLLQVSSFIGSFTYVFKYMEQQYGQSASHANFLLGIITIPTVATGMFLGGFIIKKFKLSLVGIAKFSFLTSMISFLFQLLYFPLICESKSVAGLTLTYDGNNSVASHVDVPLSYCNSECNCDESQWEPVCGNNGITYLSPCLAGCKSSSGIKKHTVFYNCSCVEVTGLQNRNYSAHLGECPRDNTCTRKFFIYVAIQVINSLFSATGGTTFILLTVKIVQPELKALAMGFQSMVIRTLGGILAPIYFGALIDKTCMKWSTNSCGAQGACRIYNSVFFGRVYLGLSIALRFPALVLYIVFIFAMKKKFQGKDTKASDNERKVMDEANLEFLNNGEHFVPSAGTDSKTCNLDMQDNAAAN
Method: as §6, §7, §8, §9

CYP2D6 = settings: in vivo
Method: as §1, §2, §3, §4

CYP1A2 = target: T3, CYP1A2 (Homo sapiens, UniProt P05177); assay: CYP1A2 phenotyping, paraxanthine/caffeine metabolic ratios; format: in vivo; settings: index drug data, healthy volunteers
T3 sequence (P05177 1-516): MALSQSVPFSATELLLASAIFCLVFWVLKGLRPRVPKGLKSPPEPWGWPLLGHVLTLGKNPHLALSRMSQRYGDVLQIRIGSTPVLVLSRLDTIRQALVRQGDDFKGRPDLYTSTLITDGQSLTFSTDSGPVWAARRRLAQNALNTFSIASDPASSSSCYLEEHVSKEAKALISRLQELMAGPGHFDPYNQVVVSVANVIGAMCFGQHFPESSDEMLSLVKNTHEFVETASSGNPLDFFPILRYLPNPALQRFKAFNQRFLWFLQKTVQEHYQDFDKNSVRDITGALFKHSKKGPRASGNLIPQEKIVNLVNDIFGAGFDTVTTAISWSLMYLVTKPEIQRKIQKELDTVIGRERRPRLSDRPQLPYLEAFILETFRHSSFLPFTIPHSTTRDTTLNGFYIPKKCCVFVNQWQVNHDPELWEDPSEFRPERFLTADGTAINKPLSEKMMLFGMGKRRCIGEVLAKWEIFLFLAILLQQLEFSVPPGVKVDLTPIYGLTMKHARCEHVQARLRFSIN
Method: as §1, §2, §3, §4

CYP2C9 = settings: index drug data, healthy volunteers
Method: as §1, §2, §3, §4

CYP2C8 [5] = target: T1, CYP2C8; settings: in vivo
Method: as §1, §2, §10, §11

[6] = Plasma pharmacokinetics of cocktail index drugs and their metabolites, five-phase crossover trial; settings: phase I: repaglinide 0.05 mg alone;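 further: parameters derived from plasma drug levels quantified by LC–MS with internal standards after acetonitrile protein precipitation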
Method: as §1
(§12) On study days, venous blood samples from all participants were drawn from forearm vein cannulas before the administration of the pretreatment drugs and 5 minutes before and 0.5, 1, 1.5, 2, 3, 4, 6, 8, 12, and 23 hours after the administration of the index drugs for determination of index drug and metabolite concentrations. […] Standardized breakfast was served 1 hour, lunch 3 hours, and snacks 7 and 9 hours after the administration of index drugs.
(§13) Prior to the analysis, the analytes were extracted from the plasma samples with simple protein precipitation. Plasma samples (50 μL) were mixed with acetonitrile solution (200 μL) containing internal standards. The samples were centrifugated and an aliquot of the supernatant was mixed with an equal volume of water before LC–MS analyses.
(§14) The flow rate was 0.3 mL/min, and the gradient program for the mobile phase B was from 20% to 90% over 7 minutes, wash at 90% 7–9.5 minutes, followed by balancing at 20% before next injection. […] The column and mobile phases were the same as above, and the gradient program for the mobile phase B was from 40% to 90% over 5 minutes, wash at 90% 5–7.3 minutes, followed by balancing at 40% before next injection. The quality control samples for each analyte at relevant concentrations were quantified with each batch of plasma samples.
(§15) Individuals with poor metabolism or transport function phenotype were excluded from respective statistical comparisons.

[7] = Safety: adverse effects and blood glucose monitoring; format: in vivo, human
Method: as §5

clinical = settings: human, in vivo; for AUC(0-t) / AUC(0-inf) / Cmax: geometric mean (geometric CV); for AUC(0-inf): AUC0-∞; for half-life: t1/2, geometric mean (geometric CV)
Method: as §1, §12, §13, §14, §15

[8] = OATP1B1 normal/decreased function (N = 13), clopidogrel pretreatment
[9] = OATP1B1 normal/decreased function (N = 13), gemfibrozil pretreatment
[10] = OATP1B1 normal/decreased function (N = 13), phase III full cocktail (control)
[11] = OATP1B1 poor function (N = 3), clopidogrel pretreatment
[12] = OATP1B1 poor function (N = 3), gemfibrozil pretreatment
[13] = OATP1B1 poor function (N = 3), phase III full cocktail (control)
[14] = N = 16, clopidogrel pretreatment
[15] = N = 16, gemfibrozil pretreatment
[16] = N = 16, phase III full cocktail (control)
[17] = 0.05 mg, phase I: repaglinide 0.05 mg alone
[18] = phase IV: clopidogrel 300 mg pretreatment + full cocktail
[19] = phase V: gemfibrozil 600 mg b.i.d. 3 days pretreatment + full cocktail

Sequence of CYP2C19 (P33261 whole entry): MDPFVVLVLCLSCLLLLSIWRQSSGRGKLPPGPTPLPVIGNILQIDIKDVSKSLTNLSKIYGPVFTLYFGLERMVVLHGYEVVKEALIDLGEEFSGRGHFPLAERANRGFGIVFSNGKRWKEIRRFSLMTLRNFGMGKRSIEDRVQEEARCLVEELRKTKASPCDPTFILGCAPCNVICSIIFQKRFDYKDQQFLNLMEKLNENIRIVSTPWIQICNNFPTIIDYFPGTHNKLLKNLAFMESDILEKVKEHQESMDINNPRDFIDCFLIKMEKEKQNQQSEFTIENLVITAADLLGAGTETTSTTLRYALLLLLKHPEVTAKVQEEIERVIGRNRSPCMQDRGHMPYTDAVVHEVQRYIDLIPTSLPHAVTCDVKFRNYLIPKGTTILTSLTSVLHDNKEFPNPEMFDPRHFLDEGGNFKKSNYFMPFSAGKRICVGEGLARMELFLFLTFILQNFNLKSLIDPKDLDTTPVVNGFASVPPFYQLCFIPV

## COC(=O)[C@H](c1ccccc1Cl)N1CCc2sccc2C1 [Clopidogrel, clopidogrel]
CYP2B6 [1]
  CYP2B6 inhibition strength in the trial: moderate
CYP2B6 [2]
  CYP2B6 inhibitor classification: weak
CYP2C19
  CYP2C19 inhibition strength in the trial: weak
[3]
  Cmax: 3.75 ng/mL
[3]; read-out: AUC0-24h, geometric mean (90% CI)
  AUC(0-t): 11.6 ng·h/mL
OATP1B1
  OATP1B1 inhibition in the trial: did not affect
CYP2C8 [4]
  CYP2C8 inhibition strength in the trial: moderate
OATP1B3
  OATP1B3 inhibition in the trial: did not affect

## C[C@H](CCC(=O)NCC(=O)O)[C@H]1CC[C@H]2[C@@H]3[C@H](O)C[C@@H]4C[C@H](O[C@@H]5O[C@H](C(=O)O)[C@@H](O)[C@H](O)[C@H]5O)CC[C@]4(C)[C@H]3CC[C@]12C [GCDCA‐3G, glycochenodeoxycholate 3‐O‐glucuronide]
OATP1B1; [8]
  GCDCA-3G AUC0-4h, geometric mean (geometric CV): 77.5 (69.9%) ng × h/mL
  GCDCA-3G C0, geometric mean (geometric CV): 21.7 (81.7%) ng/mL
OATP1B1; [9]
  GCDCA-3G AUC0-4h, geometric mean (geometric CV): 118 (65.4%) ng × h/mL
  GCDCA-3G C0, geometric mean (geometric CV): 35.7 (82.5%) ng/mL
OATP1B1; [10]
  GCDCA-3G AUC0-3h, geometric mean (geometric CV): 66.3 (49.6%) ng×h/mL
  GCDCA-3G AUC0-4h, geometric mean (geometric CV): 88.6 (51.3%) ng × h/mL
  GCDCA-3G C0, geometric mean (geometric CV): 22.9 (60.0%) ng/mL
OATP1B1; OATP1B1 normal/decreased function (N=13), phase I repaglinide only
  GCDCA-3G AUC0-3h, geometric mean (geometric CV): 68.3 (61.0%) ng×h/mL
OATP1B1; OATP1B1 normal/decreased function (N=13), phase II Geneva cocktail only
  GCDCA-3G AUC0-3h, geometric mean (geometric CV): 63.6 (75.2%) ng×h/mL
OATP1B1; [11]
  GCDCA-3G AUC0-4h, geometric mean (geometric CV): 791 (56.1%) ng × h/mL
  GCDCA-3G C0, geometric mean (geometric CV): 238 (57.2%) ng/mL
OATP1B1; [12]
  GCDCA-3G AUC0-4h, geometric mean (geometric CV): 809 (75.4%) ng × h/mL
  GCDCA-3G C0, geometric mean (geometric CV): 215 (79.1%) ng/mL
OATP1B1; [13]
  GCDCA-3G AUC0-4h, geometric mean (geometric CV): 755 (48.4%) ng × h/mL
  GCDCA-3G C0, geometric mean (geometric CV): 206 (73.8%) ng/mL

## C[C@H](CCC(=O)NCC(=O)O)C1CCC2C3C(CC[C@@]21C)[C@@]1(C)CC[C@@H](OS(=O)(=O)O)C[C@H]1C[C@H]3O (stereo partly drawn) [GCDCA‐3S, glycochenodeoxycholate 3‐sulfate]
OATP1B3; [14]
  GCDCA-3S AUC0-4h, geometric mean (geometric CV): 146 (61.8%) ng × h/mL
  GCDCA-3S C0, geometric mean (geometric CV): 49.2 (69.3%) ng/mL
OATP1B3; [15]
  GCDCA-3S AUC0-4h, geometric mean (geometric CV): 212 (46.9%) ng × h/mL
  GCDCA-3S C0, geometric mean (geometric CV): 65.5 (72.9%) ng/mL
OATP1B3; [16]
  GCDCA-3S AUC0-3h, geometric mean (geometric CV): 141 (68.3%) ng×h/mL
  GCDCA-3S AUC0-4h, geometric mean (geometric CV): 190 (67.4%) ng × h/mL
  GCDCA-3S C0, geometric mean (geometric CV): 50.8 (85.3%) ng/mL
OATP1B3; N=16, phase I repaglinide only
  GCDCA-3S AUC0-3h, geometric mean (geometric CV): 119 (69.0%) ng×h/mL
OATP1B3; N=16, phase II Geneva cocktail only
  GCDCA-3S AUC0-3h, geometric mean (geometric CV): 106 (65.4%) ng×h/mL

## Cc1ccc(C)c(OCCCC(C)(C)C(=O)O)c1 [Gemfibrozil, gemfibrozil]
CYP2D6
  CYP2D6 inhibition in the trial: lack of any clinically meaningful
CYP1A2
  CYP1A2 inhibition strength in the trial: weak
CYP2C9
  CYP2C9 inhibition in the trial: lack of any clinically meaningful
CYP2C8 [5]
  CYP2C8 inhibition strength in the trial: strong
OATP1B1
  OATP1B1 inhibition in the trial: slightly inhibits and weak
OATP1B3
  OATP1B3 inhibition in the trial: does not affect

## CCOc1cc(CC(=O)N[C@@H](CC(C)C)c2ccccc2N2CCCCC2)ccc1C(=O)O [Repaglinide, repaglinide]
[6]
  Tmax, median (range): 0.5 (0.5-1.0) h
[7]; 0.05 mg repaglinide, breakfast an hour later, also after gemfibrozil pretreatment
  Hypoglycemia: no hypoglycemia was observed
[7]; all study phases, 16 healthy volunteers
  Safety / adverse effects: safe
clinical; 0.05 mg, AUC0-4h, phase I: repaglinide 0.05 mg alone
  AUC(0-t): 0.936 ng·h/mL
clinical; 0.05 mg, AUC0-23h, phase I: repaglinide 0.05 mg alone
  AUC(0-t): 1.01 ng·h/mL
clinical; [17]
  AUC(0-inf): 1.01 ng·h/mL
  Cmax: 0.701 ng/mL
  half-life: 1.07 h
clinical; AUC0-4h, phase IV: clopidogrel 300 mg pretreatment + full cocktail
  AUC(0-t): 3.7 ng·h/mL
clinical; AUC0-4h, phase V: gemfibrozil 600 mg b.i.d. 3 days pretreatment + full cocktail
  AUC(0-t): 4.93 ng·h/mL
clinical; AUC0-23h, phase IV: clopidogrel 300 mg pretreatment + full cocktail
  AUC(0-t): 5.55 ng·h/mL
clinical; AUC0-23h, phase V: gemfibrozil 600 mg b.i.d. 3 days pretreatment + full cocktail
  AUC(0-t): 9.21 ng·h/mL
clinical; [18]
  AUC(0-inf): 5.65 ng·h/mL
  Cmax: 1.69 ng/mL
  half-life: 2.78 h
clinical; [19]
  AUC(0-inf): 9.64 ng·h/mL
  Cmax: 2.08 ng/mL
  half-life: 3.35 h
clinical; Tmax, median (range), phase IV: clopidogrel 300 mg pretreatment + full cocktail
  Tmax: 1 h
